What follows are molecules tested on Ipomea purpurea (assay: Pre-emergence herbicidal test, fibre trays (Example 33)). Settings: 2.0 kg/ha, after 21 days.
Assay type: in vivo
Procedure, shortened: (§1)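 Herbicidal damage is rated relative to untreated plants on a 0 (0–20%) to 5 (complete kill) scale. Young potted plants are sprayed and assessed at 14 days; seeds sown in fibre trays receive a soil-surface spray under a thin fresh soil layer and are assessed at 21 days.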

Row | Structure (SMILES) | herbicidal damage, Ip
1 | COC(=O)C(C)Oc1ccc(Nc2ccc(Br)cc2[N+](=O)[O-])cc1 (centres unmarked) [Compound 29] | 0 (0 is 0 to 20% damage)
2 | C#CCN(c1ccc(OC(C)C(=O)OC)cc1)c1ccc(C(F)(F)F)cc1[N+](=O)[O-] (centres unmarked) [Compound 81] | 0 (0 is 0 to 20% damage)

The molecules below were run on Amaranthus retroflexus in the same assay as above. Settings: 2.0 kg/ha, after 21 days.
Assay type: in vivo
Procedure, shortened: as §1

Row | Structure (SMILES) | herbicidal damage, Am
3 | COC(=O)C(C)Oc1ccc(Nc2ccc(Br)cc2[N+](=O)[O-])cc1 (centres unmarked) [Compound 29] | 0 (0 is 0 to 20% damage)
4 | C#CCN(c1ccc(OC(C)C(=O)OC)cc1)c1ccc(C(F)(F)F)cc1[N+](=O)[O-] (centres unmarked) [Compound 81] | 0 (0 is 0 to 20% damage)

What follows are molecules tested on Senecio vulgaris in the same assay as above. Settings: 2.0 kg/ha, after 21 days.
Assay type: in vivo
Procedure, shortened: as §1

Row | Structure (SMILES) | herbicidal damage, Sn
5 | COC(=O)C(C)Oc1ccc(Nc2ccc(Br)cc2[N+](=O)[O-])cc1 (centres unmarked) [Compound 29] | 3
6 | C#CCN(c1ccc(OC(C)C(=O)OC)cc1)c1ccc(C(F)(F)F)cc1[N+](=O)[O-] (centres unmarked) [Compound 81] | 0 (0 is 0 to 20% damage)

What follows are molecules tested on Polygonum aviculare in the same assay as above. Settings: 2.0 kg/ha, after 21 days.
Assay type: in vivo
Procedure, shortened: as §1

Row | Structure (SMILES) | herbicidal damage, Pi
7 | COC(=O)C(C)Oc1ccc(Nc2ccc(Br)cc2[N+](=O)[O-])cc1 (centres unmarked) [Compound 29] | 0 (0 is 0 to 20% damage)
8 | C#CCN(c1ccc(OC(C)C(=O)OC)cc1)c1ccc(C(F)(F)F)cc1[N+](=O)[O-] (centres unmarked) [Compound 81] | 0 (0 is 0 to 20% damage)

These molecules were tested on Chenopodium album in the same assay as above. Settings: 2.0 kg/ha, after 21 days.
Assay type: in vivo
Procedure, shortened: as §1

Row | Structure (SMILES) | herbicidal damage, Ca
9 | COC(=O)C(C)Oc1ccc(Nc2ccc(Br)cc2[N+](=O)[O-])cc1 (centres unmarked) [Compound 29] | 0 (0 is 0 to 20% damage)
10 | C#CCN(c1ccc(OC(C)C(=O)OC)cc1)c1ccc(C(F)(F)F)cc1[N+](=O)[O-] (centres unmarked) [Compound 81] | 0 (0 is 0 to 20% damage)

These molecules were tested on Wild Oats (assay: Post-emergence herbicidal activity (Example 32)). Settings: 1 kg/ha, 3 weeks after spraying.
Assay type: in vivo
Procedure, shortened: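 Herbicidal effect is expressed as a visual 0–3 injury score relative to untreated controls, read 3 weeks after foliar application to glasshouse seedlings about 10 to 12.5 cm tall. Test compositions are water-diluted surfactant-based concentrates or suspensions.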

Row | Structure (SMILES) | damage to plants, Ot
11 | C#CCN(c1ccc(OC(C)C(=O)OC)cc1)c1ccc(C(F)(F)F)cc1[N+](=O)[O-] (centres unmarked) [Compound 81] | 3+ (3+ represents 100% kill)

Same assay, conditions: 5 kg/ha, 3 weeks after spraying

Row | Structure (SMILES) | damage to plants, Ot
12 | C#CCN(c1ccc(OC(C)C(=O)OC)cc1)c1ccc(C(F)(F)F)cc1[N+](=O)[O-] (centres unmarked) [Compound 81] | 3+ (3+ represents 100% kill)

Each molecule was assayed on Mustard (assay: Pre-emergence herbicidal activity (Example 31)). Settings: 1 kg/ha, after three weeks.
Assay type: in vivo
Procedure, shortened: (§2)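 Ratings run from 0 (0–25% damage) to 3 (75–99% kill), with 3+ meaning complete kill, assessed visually three weeks after spraying. Treatment was applied to soil right after sowing, before germination was triggered by overhead watering in the glasshouse.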

Row | Structure (SMILES) | damage to plants, Ms
13 | COC(=O)C(C)Oc1ccc(Nc2ccc(Br)cc2[N+](=O)[O-])cc1 (centres unmarked) [Compound 29] | 0 (0 represents from 0 to 25% damage)
14 | C#CCN(c1ccc(OC(C)C(=O)OC)cc1)c1ccc(C(F)(F)F)cc1[N+](=O)[O-] (centres unmarked) [Compound 81] | 0 (0 represents from 0 to 25% damage)

Same assay, conditions: 5 kg/ha, after three weeks

Row | Structure (SMILES) | damage to plants, Ms
15 | COC(=O)C(C)Oc1ccc(Nc2ccc(Br)cc2[N+](=O)[O-])cc1 (centres unmarked) [Compound 29] | 0 (0 represents from 0 to 25% damage)
16 | C#CCN(c1ccc(OC(C)C(=O)OC)cc1)c1ccc(C(F)(F)F)cc1[N+](=O)[O-] (centres unmarked) [Compound 81] | 0 (0 represents from 0 to 25% damage)

The molecules below were run on Japanese millet (assay: Pre-emergence herbicidal activity (Example 31)). Settings: 1 kg/ha, after three weeks.
Assay type: in vivo
Procedure, shortened: as §2

Row | Structure (SMILES) | damage to plants, Jm
17 | COC(=O)C(C)Oc1ccc(Nc2ccc(Br)cc2[N+](=O)[O-])cc1 (centres unmarked) [Compound 29] | 2
18 | C#CCN(c1ccc(OC(C)C(=O)OC)cc1)c1ccc(C(F)(F)F)cc1[N+](=O)[O-] (centres unmarked) [Compound 81] | 3+ (3+ represents 100% kill)

Same assay, conditions: 5 kg/ha, after three weeks

Row | Structure (SMILES) | damage to plants, Jm
19 | COC(=O)C(C)Oc1ccc(Nc2ccc(Br)cc2[N+](=O)[O-])cc1 (centres unmarked) [Compound 29] | 3 (3 represents 75 to 99% kill)
20 | C#CCN(c1ccc(OC(C)C(=O)OC)cc1)c1ccc(C(F)(F)F)cc1[N+](=O)[O-] (centres unmarked) [Compound 81] | 3+ (3+ represents 100% kill)

Each molecule was assayed on Sunflower (assay: Pre-emergence herbicidal activity (Example 31)). Settings: 1 kg/ha, after three weeks.
Assay type: in vivo
Procedure, shortened: as §2

Row | Structure (SMILES) | damage to plants, Sf
21 | COC(=O)C(C)Oc1ccc(Nc2ccc(Br)cc2[N+](=O)[O-])cc1 (centres unmarked) [Compound 29] | 0 (0 represents from 0 to 25% damage)
22 | C#CCN(c1ccc(OC(C)C(=O)OC)cc1)c1ccc(C(F)(F)F)cc1[N+](=O)[O-] (centres unmarked) [Compound 81] | 0 (0 represents from 0 to 25% damage)

Same assay, conditions: 5 kg/ha, after three weeks

Row | Structure (SMILES) | damage to plants, Sf
23 | COC(=O)C(C)Oc1ccc(Nc2ccc(Br)cc2[N+](=O)[O-])cc1 (centres unmarked) [Compound 29] | 0 (0 represents from 0 to 25% damage)
24 | C#CCN(c1ccc(OC(C)C(=O)OC)cc1)c1ccc(C(F)(F)F)cc1[N+](=O)[O-] (centres unmarked) [Compound 81] | 0 (0 represents from 0 to 25% damage)

The molecules below were run on Wild Oats (assay: Pre-emergence herbicidal activity (Example 31)). Settings: 1 kg/ha, after three weeks.
Assay type: in vivo
Procedure, shortened: as §2

Row | Structure (SMILES) | damage to plants, Ot
25 | COC(=O)C(C)Oc1ccc(Nc2ccc(Br)cc2[N+](=O)[O-])cc1 (centres unmarked) [Compound 29] | 1

Same assay, conditions: 5 kg/ha, after three weeks

Row | Structure (SMILES) | damage to plants, Ot
26 | COC(=O)C(C)Oc1ccc(Nc2ccc(Br)cc2[N+](=O)[O-])cc1 (centres unmarked) [Compound 29] | 3+ (3+ represents 100% kill)

The molecules below were run on Ipomea (assay: Pre-emergence herbicidal activity (Example 31)). Settings: 1 kg/ha, after three weeks.
Assay type: in vivo
Procedure, shortened: as §2

Row | Structure (SMILES) | damage to plants, Ip
27 | COC(=O)C(C)Oc1ccc(Nc2ccc(Br)cc2[N+](=O)[O-])cc1 (centres unmarked) [Compound 29] | 0 (0 represents from 0 to 25% damage)
28 | C#CCN(c1ccc(OC(C)C(=O)OC)cc1)c1ccc(C(F)(F)F)cc1[N+](=O)[O-] (centres unmarked) [Compound 81] | 0 (0 represents from 0 to 25% damage)

Same assay, conditions: 5 kg/ha, after three weeks

Row | Structure (SMILES) | damage to plants, Ip
29 | COC(=O)C(C)Oc1ccc(Nc2ccc(Br)cc2[N+](=O)[O-])cc1 (centres unmarked) [Compound 29] | 0 (0 represents from 0 to 25% damage)
30 | C#CCN(c1ccc(OC(C)C(=O)OC)cc1)c1ccc(C(F)(F)F)cc1[N+](=O)[O-] (centres unmarked) [Compound 81] | 0 (0 represents from 0 to 25% damage)

Each molecule was assayed on Maize (assay: Post-emergence herbicidal test, young pot plants (Example 33)). Settings: 2.0 kg/ha, after 14 days.
Assay type: in vivo
Parameters: key: 0 is 0 to 20% damage; 5 is complete kill
Procedure: (§3) The compounds were formulated for test by mixing an appropriate amount with 5 ml of an emulsion prepared by diluting 160 ml of a solution containing 21.S g per litre of "Span" 80 and 78.2 g per litre of "Tween" 20 in methylcyclohexanone to 500 ml with water. "Span" 80 is a Trade Mark for a surface-active agent comprising sorbitan monolaurate. "Tween" 20 is a Trade Mark for a surface-active agent comprising a condensate of sorbitan monolaurate with 20 molar proportions of ethylene oxide. Each 5 ml emulsion containing a test compound was'then diluted to 40 ml with water and sprayed on to young pot plants (post-emergence test) of the species named in Table 5 below. Damage to test plants was assessed after 14 days on a scale of 0 to 5 where 0 is 0 to 20% damage and 5 is complete kill. In a test for pre-emergence herbicidal activity, seeds of the test plants were sown in a shallow slit formed in the surface of soil in fibre trays. The surface was then levelled and sprayed, and fresh soil then spread thinly over the sprayed surface. Assessment of herbicidal damage was carried out after 21 days using the same scale of 0 to 5 as the post-emergence test. In both cases the degree of herbicidal damage was assessed by comparison with untreated control plants. A dash (-) means that no experiment was carried out.

Row | Structure (SMILES) | damage to test plants, Mz
31 | COC(=O)C(C)Oc1ccc(Nc2ccc(Br)cc2[N+](=O)[O-])cc1 (centres unmarked) [Compound 29] | 5
32 | C#CCN(c1ccc(OC(C)C(=O)OC)cc1)c1ccc(C(F)(F)F)cc1[N+](=O)[O-] (centres unmarked) [Compound 81] | 4

These molecules were tested on Rice in the same assay as above. Settings: 2.0 kg/ha, after 14 days.
Assay type: in vivo
Parameters: key: 0 is 0 to 20% damage; 5 is complete kill
Procedure: as §3

Row | Structure (SMILES) | damage to test plants, Rc
33 | COC(=O)C(C)Oc1ccc(Nc2ccc(Br)cc2[N+](=O)[O-])cc1 (centres unmarked) [Compound 29] | 5
34 | C#CCN(c1ccc(OC(C)C(=O)OC)cc1)c1ccc(C(F)(F)F)cc1[N+](=O)[O-] (centres unmarked) [Compound 81] | 4

What follows are molecules tested on Rape in the same assay as above. Settings: 2.0 kg/ha, after 14 days.
Assay type: in vivo
Procedure, shortened: as §1

Row | Structure (SMILES) | damage to test plants, Rp
35 | COC(=O)C(C)Oc1ccc(Nc2ccc(Br)cc2[N+](=O)[O-])cc1 (centres unmarked) [Compound 29] | 1
36 | C#CCN(c1ccc(OC(C)C(=O)OC)cc1)c1ccc(C(F)(F)F)cc1[N+](=O)[O-] (centres unmarked) [Compound 81] | 0 (0 is 0 to 20% damage)

These molecules were tested on Senecio vulgaris in the same assay as above. Settings: 2.0 kg/ha, after 14 days.
Assay type: in vivo
Procedure, shortened: as §1

Row | Structure (SMILES) | damage to test plants, Sn
37 | COC(=O)C(C)Oc1ccc(Nc2ccc(Br)cc2[N+](=O)[O-])cc1 (centres unmarked) [Compound 29] | 4

These molecules were tested on Polygonum aviculare in the same assay as above. Settings: 2.0 kg/ha, after 14 days.
Assay type: in vivo
Procedure, shortened: as §1

Row | Structure (SMILES) | damage to test plants, Pi
38 | COC(=O)C(C)Oc1ccc(Nc2ccc(Br)cc2[N+](=O)[O-])cc1 (centres unmarked) [Compound 29] | 0 (0 is 0 to 20% damage)
39 | C#CCN(c1ccc(OC(C)C(=O)OC)cc1)c1ccc(C(F)(F)F)cc1[N+](=O)[O-] (centres unmarked) [Compound 81] | 0 (0 is 0 to 20% damage)

What follows are molecules tested on Wheat (assay: Pre-emergence herbicidal activity (Example 31)). Settings: 1 kg/ha, after three weeks.
Assay type: in vivo
Parameters: key: 0-3 scale: 0 = 0-25% damage, 3 = 75-99% kill, 3+ = 100% kill
Procedure, shortened: as §2

Row | Structure (SMILES) | damage to plants, Wh
40 | COC(=O)C(C)Oc1ccc(Nc2ccc(Br)cc2[N+](=O)[O-])cc1 (centres unmarked) [Compound 29] | 1

Same assay, conditions: 5 kg/ha, after three weeks

Row | Structure (SMILES) | damage to plants, Wh
41 | COC(=O)C(C)Oc1ccc(Nc2ccc(Br)cc2[N+](=O)[O-])cc1 (centres unmarked) [Compound 29] | 1

Source: EP0013144A1, “Substituted diphenylamine derivatives, compositions and herbicidal uses thereof, and processes for their preparation” (ICI AUSTRALIA LIMITED, priority 1978, dated 1980)
